The values below come from paper PMC9238401, “Peptide Conjugates Derived from flg15, Pep13, and PIP1 That Are Active against Plant-Pathogenic Bacteria and Trigger Plant Defense Responses” (Applied and Environmental Microbiology, 2022).

Non-standard residues stand in square brackets, D forms with d. Residues, ends and D or L forms follow the SMILES beside them. No end group written: not given here.

For data set [1], the system named is Erwinia amylovora PMV6076. In words: In vitro growth inhibition (MIC). The class given is cell-based. Particulars: TSB, 25°C, 48 h, OD 600 nm (Bioscreen C), three replicates, experiment repeated twice; MIC = lowest concentration with no growth, given as range. In short, it runs like this:
(§1)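 Bacterial suspensions (10^8 CFU mL^−1, from 24 h plates at 25°C) mixed with peptide dilutions in TSB, triplicate wells. OD600 read hourly over 48 h at 25°C with shaking. MIC = lowest concentration with no growth at end of run.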

For data set [2], the system named is Pseudomonas syringae pv. actinidiae Psa3700.1.1. As to the kind of experiment: In vitro growth inhibition (MIC). Type of data set: cell-based. As to conditions: TSB, 25°C, 48 h, OD 600 nm (Bioscreen C), three replicates, experiment repeated twice; MIC given as range. In short, it runs like this:
as §1

Data set [3] has as its system Pseudomonas syringae pv. syringae EPS94. As to the kind of experiment: In vitro growth inhibition (MIC). Type of data set: cell-based. Particulars: TSB, 25°C, 48 h, OD 600 nm (Bioscreen C), three replicates, experiment repeated twice; MIC given as range. In short, it runs like this: as §1
Data set [4] has as its system Xanthomonas arboricola pv. pruni CFBP5563. As to the kind of experiment: In vitro growth inhibition (MIC). The class given is cell-based. Particulars: TSB, 25°C, 48 h, OD 600 nm (Bioscreen C), three replicates, experiment repeated twice; MIC given as range. In short, it runs like this:
as §1

The subject of data set [5] is Xanthomonas fragariae Xf349-9A. As to the kind of experiment: In vitro growth inhibition (MIC). Type of data set: cell-based. Particulars: TSB, 25°C, 48 h, OD 600 nm (Bioscreen C), three replicates, experiment repeated twice; MIC given as range. In short, it runs like this:
as §1

Data set [6] deals with Xanthomonas axonopodis pv. vesicatoria 2133-2. Particulars: TSB, 25°C, 48 h, OD 600 nm (Bioscreen C), three replicates, experiment repeated twice; MIC given as range. In short, it runs like this:
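Bacteria grown 24 h (48 h for Xanthomonas axonopodis, X. fragariae) at 25°C, suspended at 10^8 CFU mL^−1, mixed with peptide dilutions in TSB.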

Data set [7] concerns plant-pathogenic bacteria (E. amylovora, X. arboricola pv. pruni, X. fragariae, X. axonopodis pv. vesicatoria, P. syringae pv. actinidiae, P. syringae pv. …). Particulars: 24 h.
Data set [8] has as its system horse erythrocytes. As to conditions: TRIS buffer pH 7.2, 1 h, 37°C, absorbance 540 nm, relative to melittin 100 μM, ± confidence interval (α = 0.05). In short, it runs like this: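 Horse erythrocytes washed in 10 mM Tris, 150 mM NaCl, pH 7.2 were mixed 1:1 with compound solutions at 750, 500, 300 and 100 μM and shaken 1 h at 37°C. Hemoglobin release read at 540 nm in supernatant; % hemolysis relative to buffer and melittin control.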

The test system of data set [9] is tobacco leaves. In words: Effect of peptide infiltration on tobacco leaves (phytotoxicity). Type of data set: in vivo. As to conditions: in vivo. In short, it runs like this: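 Peptide solutions at 50, 150 and 250 μM were infiltrated into the mesophyll of fully expanded tobacco leaves, with at least three leaves per peptide and dose on different plants. Water and equimolar melittin served as controls. Lesion diameter was measured 48 h after infiltration.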

Data set [10] can be described thus: HPLC retention time as indicator of relative hydrophobicity. Type of data set: physicochemical. Particulars: chromatographic, Kromasil 100 C18 (4.6 mm × 40 mm, 3 μm), linear gradient 2 to 100% B over 12 min, 1 mL/min; A 0.1% aqueous TFA, B 0.1% TFA in CH3CN; used as indicator of relative hydrophobicity. In short, it runs like this: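 Reversed-phase HPLC on Kromasil 100 C18 (4.6 × 40 mm, 3 μm), 0.1% TFA in water/acetonitrile, linear 2–100% B at 1 mL/min over 7 min (method A, UV 220 nm) or 12 min (method B). Retention time serves as relative hydrophobicity.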

For `CC[C@H](C)[C@H](NC(=O)[C@H](CCCCN)NC(=O)[C@H](CCCCN)NC(=O)[C@@H](Cc1ccccc1)NC(=O)[C@H](CC(C)C)NC(=O)[C@H](CCCCN)NC(=O)[C@H](CCCCN)NC(=O)[C@H](CCC(=O)O)NC(=O)[C@H](Cc1ccc(O)cc1)NC(=O)[C@@H](NC(=O)[C@H](CCCCN)NC(=O)[C@H](Cc1ccccc1)NC(=O)CNC(=O)[C@H](CCCNC(=N)N)NC(=O)[C@@H](NC(=O)[C@@H]1CCCN1C(=O)[C@H](CCC(N)=O)NC(=O)[C@H](CC(N)=O)NC(=O)[C@H](Cc1c[nH]c2ccccc12)NC(=O)[C@@H](N)C(C)C)C(C)C)C(C)C)C(=O)N[C@@H](CC(C)C)C(=O)N[C@@H](CCCCN)C(=O)N[C@@H](Cc1ccc(O)cc1)C(=O)N[C@@H](CC(C)C)C(N)=O` [Pep13-BP143] (H-VWNQPVRGFKVYEKKL[dF]KKILKYL-NH2), in [1], the “MIC, Ea” value is 6.2 to 12.5 µM. For the same compound, the “MIC, Psa” value in [2] was in the range of 3.1 to 6.2 µM. For the same compound, in data set [3], the “MIC, Pss” value is 6.2 to 12.5 µM. The “MIC, Xap” value in data set [4] is 0.8 to 1.6 µM. For the same compound, the “MIC, Xf” value in data set [5] fell in the range of 3.1 to 6.2 µM. The “MIC, Xav” value in [6] is 0.8 to 1.6 µM. The “MIC against all the bacteria tested (span over the six pathogens)” value (“MIC … (span over the six pathogens)” for short) in data set [7] was in the range of 0.8 to 12.5 µM. Besides, in [8], the “Percent hemolysis at 50 μM” value was found to be 5 ± 0.5%, the “Percent hemolysis at 150 μM” value was determined as 8 ± 0.3%, the “Percent hemolysis at 250 μM” value stood at 10 ± 0.6% and the “Percent hemolysis at 375 μM” value is reported as 17 ± 0.4%. In data set [9], the “Size of the lesions in infiltrated tobacco leaves at 50 μM” value (“Size of the lesions … at 50 μM” below) was found to be 0.16 ± 0.15 cm, the “Size of the lesions in infiltrated tobacco leaves at 150 μM” value (from here on “Size of the lesions … at 150 μM”) is listed as 0.52 ± 0.14 cm and the “Size of the lesions in infiltrated tobacco leaves at 250 μM” value (“Size of the lesions … at 250 μM” below) is 0.62 ± 0.13 cm. Also, the “tR (min), HPLC retention time (method B)” value in data set [10] was found to be 5.97 min.
As to KKLFKKILKKLVWNQPVRGFKVYE [BP16-Pep13], in [1], the “MIC, Ea” value was in the range of 6.2 to 12.5 µM. Further, the “MIC, Psa” value in [2] was in the range of 1.6 to 3.1 µM. Also, the “MIC, Pss” value in [3] was 1.6 to 3.1 µM. In addition, in [4], the “MIC, Xap” value lay within 0.8 to 1.6 µM. Besides, in data set [5], the “MIC, Xf” value lay in the range of 1.6 to 3.1 µM. Moreover, in [6], the “MIC, Xav” value lay within 1.6 to 3.1 µM. Also, the “MIC … (span over the six pathogens)” value in data set [7] is 0.8 to 12.5 µM. Also, in [8], the “Percent hemolysis at 50 μM” value was 1 ± 0.4%, the “Percent hemolysis at 150 μM” value is 1 ± 0.3%, the “Percent hemolysis at 250 μM” value was 1 ± 0.5% and the “Percent hemolysis at 375 μM” value is reported as 2 ± 0.4%. In data set [9], the “Size of the lesions … at 50 μM” value worked out at 0.23 ± 0.13 cm, the “Size of the lesions … at 150 μM” value was 0.45 ± 0.12 cm and the “Size of the lesions … at 250 μM” value amounted to 1.02 ± 0.32 cm. In addition, the “tR (min), HPLC retention time (method B)” value in data set [10] was 5.12 min.
In the case of `CC[C@H](C)[C@H](NC(=O)[C@H](CCCCN)NC(=O)[C@H](CCCCN)NC(=O)[C@@H](Cc1ccccc1)NC(=O)[C@H](CC(C)C)NC(=O)[C@H](CCCCN)NC(=O)[C@@H](N)CCCCN)C(=O)N[C@@H](CC(C)C)C(=O)N[C@@H](CCCCN)C(=O)N[C@@H](Cc1ccc(O)cc1)C(=O)N[C@@H](CC(C)C)C(=O)N[C@H](C(=O)N[C@@H](Cc1c[nH]c2ccccc12)C(=O)N[C@@H](CC(N)=O)C(=O)N[C@@H](CCC(N)=O)C(=O)N1CCC[C@H]1C(=O)N[C@H](C(=O)N[C@@H](CCCNC(=N)N)C(=O)NCC(=O)N[C@@H](Cc1ccccc1)C(=O)N[C@@H](CCCCN)C(=O)N[C@H](C(=O)N[C@@H](Cc1ccc(O)cc1)C(=O)N[C@@H](CCC(=O)O)C(=O)O)C(C)C)C(C)C)C(C)C` [BP143-Pep13] (H-KKL[dF]KKILKYLVWNQPVRGFKVYE-OH), the “MIC, Ea” value in data set [1] fell in the range of 1.6 to 3.1 µM. The “MIC, Psa” value in data set [2] is 0.8 to 1.6 µM. Also, the “MIC, Pss” value in data set [3] was 1.6 to 3.1 µM. For the same compound, the “MIC, Xap” value in [4] is 1.6 to 3.1 µM. The “MIC, Xf” value in [5] lay within 6.2 to 12.5 µM. Moreover, the “MIC, Xav” value in [6] was 1.6 to 3.1 µM. In addition, in [7], the “MIC … (span over the six pathogens)” value lay in the range of 0.8 to 12.5 µM. Besides, in data set [8], the “Percent hemolysis at 50 μM” value amounted to 5 ± 1.9%, the “Percent hemolysis at 150 μM” value came to 9 ± 0.4%, the “Percent hemolysis at 250 μM” value stood at 16 ± 1.9% and the “Percent hemolysis at 375 μM” value was determined as 29 ± 0.9%. For the same compound, in data set [9], the “Size of the lesions … at 50 μM” value was 0.10 ± 0.12 cm, the “Size of the lesions … at 150 μM” value is 0.44 ± 0.16 cm and the “Size of the lesions … at 250 μM” value was determined as 0.60 ± 0.25 cm. For the same compound, the “tR (min), HPLC retention time (method B)” value in [10] is recorded as 5.62 min.
